Laboratory results reported in patent US20080146593A1, “Substituted 5-Phenyl Pyrimidines I In Therapy” (Basf Aktiengesellschaft, priority 2005, published 2008).

Each molecule was assayed on HeLa cells (assay: Measurement of the cell cycle inhibition in HeLa cells). Settings: HeLa B cells, 20 h incubation with compound; FACS ratio G0/G1 to G2/M vs DMSO; concentration at which 50% of cells are in cell cycle arrest.
Format: cell-based
Procedure: Measurement of the Cell Cycle Inhibition in HeLa Cells—Test Procedure:
HeLa B cells are grown in DMEM (Life Technologies Cat No 21969-035) supplemented with 10% Fetal Calf Serum (FCS, Life Technologies Cat No 10270-106) in 180 cm^2 Flasks at 37° C., 92% humidity and 7% CO2.
Cells are seeded at 5×10^4 cells per well in a 24-well plate. Twenty hours later the compounds are added such that the final concentration is 1×10^−6, 3.3×10^−7, 1.1×10^−7, 3.7×10^−8, 1.2×10^−8 and 1×10^−9 M in a final volume of 500 μl. DMSO alone is added to 6 wells as a control. Cells are incubated with the compounds as above for 20 h. Then cells are observed under the microscope to check for cell death, and the 24-well plate is then centrifuged at 1200 rpm for 5 min at 20° C., acceleration position 7 and break position 5 (Eppendorf centrifuge 5804R).
The supernatant is removed and the cells lysed with 0.5 ml RNase Buffer (10 mM NaCitrate, 0.1% Nonidet NP40, 50 μg/ml RNase, 10 μg/ml Propidium iodide) per well. The plates are then incubated for at least 30 min in the dark at RT and the samples then transferred to FACS tubes. Samples are measured in a FACS machine (Beckton Dickinson) at the following settings:
Instrument Settings of the FACS Calibur:
The ratio of cells in G0/G1-phase to G2/M phase is calculated and compared to the value for the controls (DMSO) only. Results are given in table 2 as the IC50 value calculated from the concentration curve plotted against the cell cycle ratio and indicate the compound concentration at which 50% of cells are in cell cycle arrest after treatment with the compound.
For `CC1CCN(c2nc(C(N)=NO)nc(Cl)c2-c2c(F)cc(F)cc2F)CC1` [Example 58], the IC50 was 26 nM.
`Cc1cn(-c2nc(Cl)c(-c3c(F)cc(F)cc3F)c(NC(C)C(F)(F)F)n2)nc1-c1ccco1` (centres unmarked) [Example 95] was tested, and the IC50 was 39 nM.
For `CC(C)Nc1nc(-n2cc(Br)cn2)nc(Cl)c1-c1c(F)cccc1Cl` [Example 19], the IC50 was 16 nM.
For `CC(C)Nc1nc(-n2ccc(N)n2)nc(Cl)c1-c1c(F)cc(F)cc1F` [Example 104], the IC50 was 47 nM.
Molecule `CC(C)Nc1nc(-c2ccccn2)nc(Cl)c1-c1c(F)cc(F)cc1F` [Example 2] has an IC50 of 48 nM.
Molecule `CC(C)C(C)Nc1nc(-c2ccccn2)nc(Cl)c1-c1c(F)cccc1F` (centres unmarked) [Example 82] has an IC50 of 30 nM.
In the case of `COc1ccc(-c2c(Cl)nc(C(N)=NO)nc2N[C@@H](C)C(C)C)c(Cl)c1` [Example 185], the IC50 is reported as 30 nM.
`COc1cc(F)c(-c2c(Cl)nc(C(N)=O)nc2N[C@@H](C)C(C)C)c(F)c1` [Example 199] was tested, and the IC50 was 33 nM.
In the case of `CC1CCCCN1c1nc(-n2ccc(N)n2)nc(Cl)c1-c1c(F)cccc1F` (centres unmarked) [Example 127], the IC50 is reported as 37 nM.
Molecule `CON=C(N)c1nc(Cl)c(-c2c(F)cc(F)cc2F)c(N[C@@H](C)C(C)C)n1` [Example 147] has an IC50 of 41 nM.
In the case of `CCC(C)Nc1nc(-n2cncn2)nc(Cl)c1-c1c(C)cccc1F` (centres unmarked) [Example 110], the IC50 is reported as 25 nM.
Work on `Cc1ccc(-c2c(Cl)nc(-n3cccn3)nc2N2CCC(C)CC2)c(F)c1` [Example 87] yielded an IC50 of 39 nM.
`C=CCN(CC=C)c1nc(-n2ccc(N)n2)nc(Cl)c1-c1ccc(F)cc1Cl` [Example 135] gave an IC50 of 18 nM.
For `C[C@H](Nc1nc(-n2cnc(SCc3ccccc3)n2)nc(Cl)c1-c1c(F)cc(F)cc1F)C(F)(F)F` [Example 151], the IC50 was 8.3 nM.
In the case of `CC1CCCCN1c1nc(-n2cccn2)nc(Br)c1-c1c(F)cc(F)cc1F` (centres unmarked) [Example 161], the IC50 is reported as 50 nM.
In the case of `CC1CCCCN1c1nc(-n2cncn2)nc(Cl)c1-c1ccc(F)cc1F` (centres unmarked) [Example 141], the IC50 is reported as 46 nM.
In the case of `CON=C(N)c1nc(Cl)c(-c2ccc(F)cc2Cl)c(N[C@@H](C)C(C)C)n1` [Example 218], the IC50 is reported as 29 nM.
In the case of `CCOC(=O)C(C)C=NNc1nc(Cl)c(-c2c(F)cc(F)cc2F)c(N[C@@H](C)C(F)(F)F)n1` (some centres unmarked) [Example 152], the IC50 is reported as 24 nM.
`CC(=NO)c1nc(Cl)c(-c2c(F)cc(F)cc2F)c(N[C@@H](C)C(F)(F)F)n1` [Example 209] showed an IC50 of 18 nM.
Molecule `CC1CCCN1c1nc(-n2cncn2)nc(Cl)c1-c1c(F)cccc1Cl` (centres unmarked) [Example 98] has an IC50 of 46 nM.
For `C=C(C)CNc1nc(-n2ccc(N)n2)nc(Cl)c1-c1c(F)cc(F)cc1F` [Example 122], the IC50 was 46 nM.
`C[C@H](Nc1nc(-n2cccn2)nc(Br)c1-c1c(F)cc(F)cc1F)C(F)(F)F` [Example 207] showed an IC50 of 15 nM.
`CC1CCN(c2nc(-c3ccccn3)nc(Cl)c2-c2c(F)cccc2F)CC1` [Example 81] gave an IC50 of 34 nM.
In the case of `CC(C)[C@@H](C)Nc1nc(-n2cnc([N+](=O)[O-])n2)nc(Cl)c1-c1c(F)cc(F)cc1F` [Example 89], the IC50 is reported as 47 nM.
For `CCC(C)Nc1nc(-n2cccn2)nc(Cl)c1-c1ccc(C)cc1F` (centres unmarked) [Example 97], the IC50 was 13 nM.
`C[C@H](Nc1nc(C(N)=NO)nc(Cl)c1-c1c(F)cccc1Cl)C(F)(F)F` [Example 176] showed an IC50 of 20 nM.
`COc1ccc(-c2c(Cl)nc(C(C)=NO)nc2N[C@@H](C)C(C)C)c(Cl)c1` [Example 200] gave an IC50 of 47 nM.
In the case of `Cc1nc(C)n(-c2nc(Cl)c(-c3c(F)cc(F)cc3F)c(N3CCCC3C)n2)n1` (centres unmarked) [Example 77], the IC50 is reported as 35 nM.
Work on `CC1CCN(c2nc(-n3cnc(N)n3)nc(Cl)c2-c2c(F)cc(F)cc2F)CC1` [Example 94] yielded an IC50 of 25 nM.
Molecule `CC(C)[C@H](C)Nc1nc(C(N)=NO)nc(Cl)c1-c1cc(F)ccc1Cl` [Example 201] has an IC50 of 30 nM.
`CON=C(N)c1nc(Cl)c(-c2ccc(F)cc2Cl)c(N[C@@H](C)C(F)(F)F)n1` [Example 211] gave an IC50 of 24 nM.
With `CCNc1nc(-n2cccn2)nc(Cl)c1-c1c(F)cc(F)cc1F` [Example 164] the IC50 was 48 nM.
For `CC(=O)NC(=O)c1nc(Cl)c(-c2c(F)cccc2F)c(N2CCC(C)CC2)n1` [Example 184], the IC50 was 51 nM.
In the case of `CC(C)[C@H](C)Nc1nc(C(N)=NO)nc(Cl)c1-c1ccc([N+](=O)[O-])cc1Cl` [Example 192], the IC50 is reported as 30 nM.
`C[C@H](Nc1nc(C#N)nc(Cl)c1-c1c(F)cc(F)cc1F)C(F)(F)F` [Example 10] showed an IC50 of 47 nM.
In the case of `COc1cc(F)c(-c2c(Cl)nc(-n3cncn3)nc2N2CCC(C)CC2)c(F)c1` [Example 68], the IC50 is reported as 20 nM.
`COc1cc(F)c(-c2c(Cl)nc(-n3cccn3)nc2N2CCC(C)CC2)c(F)c1` [Example 67] was tested, and the IC50 was 13 nM.
`C[C@H](Nc1nc(-c2cnccn2)nc(Cl)c1-c1c(F)cc(F)cc1F)C(F)(F)F` [Example 27] showed an IC50 of 3.5 nM.
`O=C1CCCN1c1nc(Cl)c(-c2c(F)cc(F)cc2F)c(NCC(F)(F)F)n1` [Example 210] was tested, and the IC50 was 39 nM.
`CC(C)[C@H](C)Nc1nc(-n2cccn2)nc(Cl)c1-c1c(F)cc(F)cc1F` [Example 138] showed an IC50 of 23 nM.
`CCN(CC)c1nc(-c2cnccn2)nc(Cl)c1-c1c(F)cc(F)cc1F` [Example 26] gave an IC50 of 38 nM.
In the case of `Fc1cc(F)c(-c2c(Cl)nc(-n3ccnn3)nc2N2CC=CCC2)c(F)c1` [Example 45], the IC50 is reported as 17 nM.
For `CC1CCN(c2nc(-c3ccccn3)nc(Cl)c2-c2c(F)cc(O)cc2F)CC1` [Example 73], the IC50 was 11 nM.
`CCC(C)Nc1nc(-n2cc(I)cn2)nc(Cl)c1-c1c(C)cccc1F` (centres unmarked) [Example 120] was tested, and the IC50 was 25 nM.
With `COCC(C)Nc1nc(-n2ccc(N)n2)nc(Cl)c1-c1ccc(C)cc1F` (centres unmarked) [Example 128] the IC50 was 38 nM.
`CC1CCN(c2nc(-n3ccnn3)nc(Cl)c2-c2c(F)cc(F)cc2F)CC1` [Example 29] gave an IC50 of 17 nM.
Molecule `C[C@H](Nc1nc(-n2cc(C#N)cn2)nc(Cl)c1-c1c(F)cc(F)cc1F)C(F)(F)F` [Example 162] has an IC50 of 17 nM.
`CCC(C)Nc1nc(-n2ccc(N)n2)nc(Cl)c1-c1c(F)cccc1Cl` (centres unmarked) [Example 148] was tested, and the IC50 was 34 nM.
`CC1CCN(c2nc(-n3ccnn3)nc(Cl)c2-c2c(F)cccc2Cl)CC1` [Example 49] was tested, and the IC50 was 10 nM.
For `CC1CCCN(c2nc(-n3cncn3)nc(Cl)c2-c2c(F)cc(F)cc2F)C1` (centres unmarked) [Example 44], the IC50 was 18 nM.
In the case of `C[C@H](Nc1nc(-n2cc(I)cn2)nc(Cl)c1-c1c(F)cc(F)cc1F)C(F)(F)F` [Example 34], the IC50 is reported as 25 nM.
In the case of `Cc1cccc(-c2nc(Cl)c(-c3c(F)cc(F)cc3F)c(N[C@@H](C)C(F)(F)F)n2)n1` [Example 13], the IC50 is reported as 16 nM.
In the case of `CCCC(C)Nc1nc(-n2ccc(N)n2)nc(Cl)c1-c1ccc(C)cc1F` (centres unmarked) [Example 121], the IC50 is reported as 50 nM.
Work on `CC1CCN(c2nc(C(N)=NO)nc(Cl)c2-c2c(F)cccc2F)CC1` [Example 194] yielded an IC50 of 21 nM.
`CC(C)[C@H](C)Nc1nc(-c2nccs2)nc(Cl)c1-c1c(F)cccc1Cl` [Example 136] gave an IC50 of 29 nM.
Molecule `CC(Nc1nc(-n2ccc(N)n2)nc(Cl)c1-c1c(F)cc(F)cc1F)C(F)(F)F` (centres unmarked) [Example 57] has an IC50 of 5.8 nM.
For `Cc1c[nH]n(-c2nc(Cl)c(-c3c(F)cc(F)cc3F)c(N[C@@H](C)C(F)(F)F)n2)c1=O` [Example 153], the IC50 was 27 nM.
`CON=C(N)c1nc(Cl)c(-c2c(F)cccc2Cl)c(N[C@@H](C)C(F)(F)F)n1` [Example 214] showed an IC50 of 18 nM.
For `CON=C(N)c1nc(Cl)c(-c2cc(F)ccc2Cl)c(N[C@@H](C)C(F)(F)F)n1` [Example 221], the IC50 was 30 nM.
`CC(C)Nc1nc(C(N)=NO)nc(Cl)c1-c1c(F)cc(F)cc1F` [Example 144] gave an IC50 of 25 nM.
In the case of `C=CCN(C)c1nc(-n2cc(Br)cn2)nc(Cl)c1-c1c(F)cc(F)cc1F` [Example 123], the IC50 is reported as 49 nM.
With `CC(C)Nc1nc(-c2ccccn2)nc(Cl)c1-c1c(F)cccc1F` [Example 83] the IC50 was 37 nM.
Molecule `CCC(C)Nc1nc(-c2csc(C)n2)nc(Cl)c1-c1c(F)cc(F)cc1F` (centres unmarked) [Example 71] has an IC50 of 25 nM.
`Cc1csc(-c2nc(Cl)c(-c3c(F)cc(F)cc3F)c(N[C@@H](C)C(F)(F)F)n2)n1` [Example 178] gave an IC50 of 20 nM.
`Cc1nc(C)n(-c2nc(Cl)c(-c3c(F)cc(F)cc3F)c(N3CCCCC3)n2)n1` [Example 54] was tested, and the IC50 was 23 nM.
With `CCC(C)Nc1nc(-n2ccnn2)nc(Cl)c1-c1c(C)cccc1F` (centres unmarked) [Example 111] the IC50 was 29 nM.
`CON=C(N)c1nc(Cl)c(-c2cc(F)ccc2Cl)c(N[C@@H](C)C(C)C)n1` [Example 202] gave an IC50 of 38 nM.
`CC(C)=NOc1nc(Cl)c(-c2c(F)cc(F)cc2F)c(N[C@@H](C)C(F)(F)F)n1` [Example 204] was tested, and the IC50 was 23 nM.
For `CC1CCCN1c1nc(C(N)=NO)nc(Cl)c1-c1ccc(F)cc1Cl` (centres unmarked) [Example 208], the IC50 was 56 nM.
`CCC(C)Nc1nc(-n2cccn2)nc(Cl)c1-c1c(F)cccc1Cl` (centres unmarked) [Example 106] was tested, and the IC50 was 12 nM.
`CON=C(N)c1nc(Cl)c(-c2c(F)cccc2F)c(N[C@@H](C)C(F)(F)F)n1` [Example 213] showed an IC50 of 51 nM.
Work on `CC[C@H](C)Nc1nc(-n2cccn2)nc(Cl)c1-c1ccc(C)cc1F` [Example 102] yielded an IC50 of 50 nM.
In the case of `CCC(C)Nc1nc(-n2cccn2)nc(Cl)c1-c1ccc(F)cc1F` (centres unmarked) [Example 105], the IC50 is reported as 45 nM.
For `Cc1nc(C)n(-c2nc(Cl)c(-c3c(F)cccc3Cl)c(N3CCC(C)CC3)n2)n1` [Example 85], the IC50 was 21 nM.
